The target in assay [1] is T1, Mac-1 (CD11b/CD18) (Homo sapiens, UniProt P05107+P11215).
T1 construct: methodology to isolate neutrophils from ethylenediaminetetraacetic acid (EDTA)-treated venous blood obtained from healthy human volunteers; endogenous in cells; host or cells: neutrophils (PMN) freshly isolated from venous blood of healthy human volunteers
Kind of assay: Human Neutrophil Mac-1 Adhesion Assay (PMN KLH). The format is cell-based. Conditions: human neutrophils, FMLP-stimulated, KLH coated plates. As for the experimental part: Protocol for Human Neutrophil Mac-1 Adhesion Assay
We evaluated several 5-aryltriazol-3-thiones utilizing methodology similar to that of Ferrante and Thong as described in J. Immunol. […] Namely, we utilized Ferrante and Thong's methodology to isolate neutrophils from ethylenediaminetetraacetic acid (EDTA)-treated venous blood obtained from healthy human volunteers. Keyhole limpet hemocyanin (KLH) coated microtiter plates were prepared as follows:
All pipetting was automated using the Cetus Pro/Pette (Perkin-Elmer; division of Applied Biosystems, Foster, Calif.). KLH, Megathura crenulata; Calbiochem-Novabiochem, La Jolla, Calif., was prepared at a concentration of 0.5 mg/mL in Dulbecco's PBS phosphate buffered saline (PBS) with CA++, pH 7.2 (DPBS).
Microtiter plates are prewashed with 50% EtOH for 1 hour at 37° C., then drained and blotted to dryness. Then 0.3 mL KLH solution was pipetted into each well of the 96 well microtiter plate, covered and incubated overnight at 37° C. Plates are then inverted to drain, blotted to dryness, washed with 0.3 mL cold D-PBS, drained, blotted to dryness, then stored at 4° C. until use.
Procedure for PMN KLH (Mac-1 Adhesion Assay)
On the Pro/Pette system, a treatment plate was placed in plate position 1 (P-1), buffer Micro.trof was placed in plate position 2 (P-2), and a single row of tips in a spare magazine are placed in the tip position on the carriage. Two hundred ten μL aliquots D-PBS are pipetted into all wells (105 μL using Cetus File #18, Micro.trof 3, no mixes, tip row H, no tip change, run twice). Drug plate was placed in plate position 2 (P-2). Donor drug plates were prepared to contain buffer or drug in appropriate wells. Thirty μL drug or D-PBS buffer are pipetted into appropriate wells in the treatment plate in position 1 (P-1) (Cetus File #17, one mix before and after, changing tips) from donor plate. Thirty μL of neutrophils (PMNs) (30 μL of 10^7 cells/mL) were next pipetted from either a Micro.trof 1, position 2 (P-2), or a row of 0.5 mL capacity microcentrifuge tubes (Sarstedt RIA vials) to plate 1 using Cetus File #18, changing tips, one mix (50 μL) before and after. Cells and drug were then incubated for 10 minutes at 37° C. Agonist (e.g., FMLP) or D-PBS buffer (30 μL) were next pipetted to appropriate wells using Cetus File #18 (Micro.trof) or Cetus File #42 (for plate to plate), changing tips and one mix before and after. Cell/drug/agonist mixture was then incubated for 60 minutes at 37° C. After the incubation period, the treatment plate is gently inverted to drain, blotted lightly to dryness on a paper towel. The treatment plate is then washed with 300 μL D-PBS buffer using Cetus File #18, using pump at slow speed, again inverted to drain, and again blotted to dryness. Adherent cells are stained by the addition of 150 μL D-PBS buffer to all wells, using Cetus File #18, Micro.trof 3 no tip change. […] The treatment plate is then incubated overnight at 37° C.
After overnight incubation, the treatment plate is gently inverted to drain, blotted to dryness on paper towel, then gently washed with 300 μL D-PBS buffer using Cetus File #18, using pump at slow sped. The treatment plate is then gently inverted to drain, and blotted to dryness. The washing of the treatment plate is repeated until all excess dye is removed.
The treatment plate is then covered and incubated for 60 minutes at 37° C. After the incubation, 150 μL 50% EtOH is added to each well of the treatment plate using Cetus File #18, Micro.trof 3, mixing three times, changing tips. […]
a. mean unstimulated cell control OD is determined and subtracted from all other values b. mean net stimulated, e.g., FMLP, control values are determined c. mean drug values are determined and percent drug inhibition vs. stimulus control are calculated as follows: [formula] d. IC50 determinations, plotting logdose vs. percent inhibition, are determined by linear regression analysis using the least squares method.

Assay [2] has as its system gastric damage (acidified aspirin). Kind of assay: Cytoprotection study: gastric damage by oral acidified aspirin. Type of assay: in vivo, Sprague-Dawley rats. The conditions noted are these: Rattus norvegicus; 1 mg/kg PO, 15 min before oral acidified aspirin 288 mg/kg; female rats. As for the experimental part:
Protocol for Cytoprotection Studies
For all studies, random-bred, barrier-raised, SPF, female Sprague-Dawley rats (Charles River Laboratories, Portage, Mich.) weighing 180-300 g were used. Animals were acclimated for at least 1 week prior to the studies and housed in wire bottom cages supplied with macrofiltered fresh tap water and Purina Rat Chow #5012 (Purina Mills Inc., Richmond, Ind.) ad libitum. The animal rooms were kept at 22° C.±1° C. and 50% humidity.
All animals were food fasted for 24 hours and water deprived for 2 or more hours prior to treatment administration. For oral dosing, Aspirin (acetylsalicylic acid, Sigma, St. Louis, Mo.) was dissolved in an aqueous solution of 150 mM HCl (Takeucvhi K., Digestive Disease and Science, 35:178-185 (1990)). Misoprostol was used as a standard. The test compound was dissolved in double glass distilled water, normal saline USP (NS) or the misoprostol phosphate buffer vehicle. All oral doses of misoprostol and test compounds were administered in a volume of 1 mL/animal. All oral dosing was done by gavage using a 3 mL syringe attached to a […], 17 gauge gavage needle.
The test compounds were administered in 1 mL 15 minutes prior to treatment with an oral dose of acidified aspirin (288 mg/kg in 150 mM HCl) given in 1 mL. Stomachs were removed to assess gastric damage 30 minutes after exposure to the damaging agent. The stomach was isolated through a midline incision in the abdomen followed by clamping of the esophagus and duodenum. Seven milliliters of 10% formalin (Fisher Scientific, Fair Lawn, N.J.) was injected into the stomach which was then excised and submerged in formalin for at least 10 minutes. The stomach was then opened along the greater curvature and pinned flat and submerged in formalin overnight. After the forestomach and exterior blood vessels were trimmed away, the tissues were clarified with glycerol (E. M. Science, Gibbstown, N.J.) and flattened between Plexiglass plates. Gastric damage was measured with a Cambridge Instruments LTD., (Cambridge, UK) Quantimet 970 Image Analysis System. Hemorrhagic damage appeared as darkened areas on a background of lighter undamaged tissue. This darker area was detected and surface area measured by the image analyzer. In addition, the complete stomachs were also completely submerged in 0.1N solution of iodine (J. T. Baker Chemical Co., Phillipsburg, N.J.), and the total stomach surface area was determined. The system was calibrated prior to each use with a standard sample. The percent damage and percent protection was computed by the following equation: [formula]

T1 sequence (P05107 23-769, other chains not shown): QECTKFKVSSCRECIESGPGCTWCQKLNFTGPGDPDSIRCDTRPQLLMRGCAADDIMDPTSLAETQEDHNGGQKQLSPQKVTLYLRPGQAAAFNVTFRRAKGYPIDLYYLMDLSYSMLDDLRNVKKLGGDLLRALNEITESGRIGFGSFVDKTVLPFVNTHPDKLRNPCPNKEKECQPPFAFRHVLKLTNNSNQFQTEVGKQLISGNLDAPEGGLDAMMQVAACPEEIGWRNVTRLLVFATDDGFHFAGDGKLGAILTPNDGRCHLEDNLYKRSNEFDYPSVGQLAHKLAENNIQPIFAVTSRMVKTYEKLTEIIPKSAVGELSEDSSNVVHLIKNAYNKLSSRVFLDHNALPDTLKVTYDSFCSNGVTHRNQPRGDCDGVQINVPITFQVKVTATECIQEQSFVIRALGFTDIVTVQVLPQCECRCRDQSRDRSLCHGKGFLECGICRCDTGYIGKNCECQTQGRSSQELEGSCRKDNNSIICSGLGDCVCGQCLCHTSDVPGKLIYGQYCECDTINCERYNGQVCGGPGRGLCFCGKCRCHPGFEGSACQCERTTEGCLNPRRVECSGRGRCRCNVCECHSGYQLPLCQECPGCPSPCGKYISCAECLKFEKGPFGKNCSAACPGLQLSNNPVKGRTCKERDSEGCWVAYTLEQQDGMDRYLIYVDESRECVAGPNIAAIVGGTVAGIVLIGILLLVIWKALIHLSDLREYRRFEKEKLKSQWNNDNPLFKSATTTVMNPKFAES

What is called inhibition is the change of the read-out against control, counted positive when it falls. As to `CCn1c(-c2ccc(N)cc2)n[nH]c1=S` [Example 2, 5-(4-aminophenyl)-4-ethyl-2,4-dihydro-[1,2,4]triazol-3-thione], the inhibition at 33 µM in assay [1] came out at 36.9%.
Broadly, the IC50 is the point on the concentration scale where inhibition reaches its midpoint. Read a high IC50 as weaker potency in that assay. The compound `CCn1c(-c2ccc(O)cc2)n[nH]c1=S` [Example 4, 5-(4-hydroxyphenyl)-4-ethyl-2,4-dihydro-[1,2,4]triazol-3-thione] showed an IC50 in assay [1] of 7.8 µM.
Regarding `CCn1c(S)nnc1-c1ccccc1O` [Example 5, 5-(2-hydroxyphenyl)-4-ethyl-2,4-dihydro-[1,2,4]triazol-3-thione], in assay [1], the IC50 amounted to 4.3 µM. Against the preceding compound, the IC50 is about 1.8-fold lower.
One may read the inhibition in vivo as the change of the read-out against control, counted positive when it falls. Low values mean a response near the control, high ones a response far below the control. On to `CCn1c(-c2cc(Cl)ccc2N)n[nH]c1=S` [Example 6, 5-(2-amino-5-chlorophenyl)-4-ethyl-2,4-dihydro-[1,2,4]triazol-3-thione], for which, in assay [1], it took 0.8 µM to reach half-maximal inhibition (IC50). Further, the inhibition in vivo at 1 mg/kg in assay [2] was 55.1%.
Consider `CCn1c(-c2cc(OC)c(OC)cc2N)n[nH]c1=S` [Example 7, 5-(2-amino-4,5-dimethoxyphenyl)-4-ethyl-2,4-dihydro-[1,2,4]triazol-3-thione], for which the IC50 in assay [1] came to 7.1 µM. This counts as single-digit micromolar.
In assay [1], `CCn1c(-c2ccc(OC)cc2)n[nH]c1=S` [Example 11, 5-(4-methoxyphenyl)-4-ethyl-2,4-dihydro-[1,2,4]triazol-3-thione] had an IC50 of 1.6 µM. The inhibition in vivo at 1 mg/kg in assay [2] amounted to 32.2%.
On to `CCn1c(-c2ccc(Cl)cc2Cl)n[nH]c1=S` [Example 12, 5-(2,4-chlorophenyl)-4-ethyl-2,4-dihydro-[1,2,4]triazol-3-thione], for which the IC50 in assay [1] is 2.1 µM. In addition, 1 mg/kg produced 59.4% inhibition in vivo in assay [2].
As to `CCn1c(-c2ccc(OC)c(OC)c2)n[nH]c1=S` [Example 16, 5-(3,4-dimethoxyphenyl)-4-ethyl-2,4-dihydro-[1,2,4]triazol-3-thione], in assay [1], half-maximal inhibition (IC50) was put at 3.1 µM. This compound also showed an inhibition in vivo at 1 mg/kg in assay [2] of 62.2%.
In turn, `Cc1ccccc1-c1n[nH]c(=S)n1-c1ccccc1` [Example 22, 5-(2-methylphenyl)-2,4-dihydro-4-phenyl-3H-[1,2,4]-triazol-3-thione] yielded a half-maximal inhibitory concentration (IC50) in assay [1] of 0.2 µM.
With `Sc1nnc(-c2ccccc2)n1-c1ccccc1` [Example 23, 2,4-dihydro-4,5-diphenyl-3H-[1,2,4]-triazol-3-thione], the IC50 in assay [1] was 1.1 µM. The compound also gave an inhibition in vivo at 1 mg/kg in assay [2] of 21.4%.
`COc1ccccc1-c1n[nH]c(=S)n1-c1ccccc1` [Example 24, 5-(2-methoxyphenyl)-2,4-dihydro-4-phenyl-3H-[1,2,4]-triazol-3-thione] yielded a half-maximal inhibitory concentration (IC50) in assay [1] of 2.5 µM. In other words, the single-digit micromolar range.
Same read-out and setting: for `Sc1nnc(-c2ccccc2)n1Cc1ccccc1` [Example 25, 2,4-dihydro-5-phenyl-4-(phenylmethyl)-3H-[1,2,4]-triazol-3-thione] the value was 8.1 µM; for `COc1ccc(-c2n[nH]c(=S)n2-c2ccccc2)cc1OC` [Example 26, 5-(3,4-dimethoxyphenyl)-2,4-dihydro-4-phenyl-3H-1,2,4-triazol-3-thione], 0.8 µM.
For the compound `Oc1ccc(-c2n[nH]c(=S)n2-c2ccccc2)cc1` [Example 27, 5-(4-hydroxyphenyl)-2,4-dihydro-4-phenyl-3H-[1,2,4]-triazol-3-thione], in assay [1], the inhibition at 33 µM turned out to be 6%.
With `COc1cccc(-c2n[nH]c(=S)n2-c2ccccc2)c1` [Example 28, 5-(3-methoxyphenyl)-2,4-dihydro-4-phenyl-3H-[1,2,4]-triazol-3-thione], in assay [1], the inhibition at 33 µM is 60%.
Take `Oc1ccc(-c2n[nH]c(=S)n2Cc2ccccc2)cc1` [Example 29, 5-(4-hydroxyphenyl)-2,4-dihydro-4-phenylmethyl-3H-[1,2,4]-triazol-3-thione]: the inhibition at 33 µM in assay [1] stood at 42%.
Regarding `Nc1ccc(-c2n[nH]c(=S)n2-c2ccccc2)cc1` [Example 31, 5-(4-aminophenyl)-2,4-dihydro-4-phenyl-3H-[1,2,4]-triazol-3-thione], in assay [1], the inhibition at 33 µM amounted to 15%.
The compound `COc1ccc(-c2n[nH]c(=S)n2C)cc1OC` [Example 32, 5-(3,4-dimethoxyphenyl)-2,4-dihydro-4-methyl-3H-[1,2,4]-triazol-3-thione] came in with an IC50 in assay [1] of 1.5 µM. The inhibition in vivo at 1 mg/kg in assay [2] came to 21.6%.
As to `COc1ccc(-c2n[nH]c(=S)n2-c2ccccc2)cc1` [Example 33, 5-(4-methoxyphenyl)-2,4-dihydro-4-phenyl-3H-[1,2,4]-triazol-3-thione], in assay [1], half-maximal inhibition (IC50) was put at 4.1 µM.
Turning to `S=c1nc(-c2ccccc2)[nH][nH]1` [Example 34, 1,2-dihydro-5-phenyl-3H-[1,2,4]-triazol-3-thione], the inhibition at 33 µM in assay [1] was 58%.
`Nc1ccccc1-c1n[nH]c(=S)n1-c1ccccc1` [Example 35, 5-(aminophenyl)-2,4-dihydro-4-phenyl-3H-[1,2,4]-triazol-3-thione]: in assay [1], the inhibition at 33 µM is 24%.
`CCn1c(-c2ccccc2N)n[nH]c1=S` [Example 36, 5-(2-aminophenyl)-4-ethyl-2,4-dihydro-[1,2,4]triazol-3-thione] gave an IC50 in assay [1] of 0.4 µM. The inhibition in vivo at 1 mg/kg in assay [2] worked out at 53.7%.
As to `CNc1ccccc1-c1n[nH]c(=S)n1-c1ccccc1` [Example 37, 5-(2-methylaminophenyl)-4-phenyl-2,4-dihydro-[1,2,4]triazol-3-thione], the inhibition at 33 µM in assay [1] turned out to be 7%.
For the compound `Cn1c(-c2ccccc2N)n[nH]c1=S` [Example 38, 5-(2-Aminophenyl)-2,4-dihydro-4-methyl-4H-[1,2,4]triazol-3-thione], the inhibition at 33 µM in assay [1] is -0.1%. This compound also returned an inhibition in vivo at 1 mg/kg in assay [2] of 51.2%.
For `Nc1ccccc1-c1n[nH]c(=S)n1N` [Example 39, 4-Amino-5-(2-aminophenyl)-2,4-dihydro-3H-[1,2,4]triazol-3-thione], the inhibition at 33 µM in assay [1] was found to be 57%.

The values above are taken from patent publication US5489598A, “Cytoprotection utilizing aryltriazol-3-thiones” (Warner-Lambert Company, priority 1994, dated 1996).
